Laboratory results: ChEMBL document CHEMBL1201862, “PubChem BioAssay data set” (2004)
Active and inactive are the calls of the source.

What was measured:
[1] = biological target: Nucleotide-binding oligomerization domain-containing protein 2 (Homo sapiens, UniProt Q9HC29); experiment: NOD2 signaling inhibitors, cell-based, luminescence, uHTS, HEK293 (AID 1566); assay type: functional
[2] = inhibitors of intracellular T. cruzi replication, confirmation, NIH3T3 host cells, beta-gal luminescence (AID 2044); assay type: functional, cell-based;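 also: intracellular parasites grown in NIH/3T3 mouse fibroblasts as host cells; luminescent beta-galactosidase reporter signal from transgenic T. cruzi replicating inside host cells; inhibitors lower the luminescence signal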
HEK293 [3] = experiment: NOD2 signaling inhibitors in MDP-stimulated cells, cell-based, uHTS, luminescence (AID 2001); assay type: functional; details: Homo sapiens
HEK293 [4] = experiment: NOD1 signaling inhibitors, primary screen, cell-based, luminescence, uHTS (AID 1578); assay type: functional; details: Homo sapiens
[5] = cytotoxicity toward NIH3T3 fibroblasts, dose response, counter-screen, cell-based, ATP luminescence, mouse fibroblasts (AID 2010); assay type: functional;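 also: cells exposed to compound for about 90 hours before reading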
HEK293 [6] = experiment: cells; assay type: functional, cell-based; details: Homo sapiens
HEK293 [7] = experiment: cells; assay type: functional, cell-based; details: Homo sapiens; remark: listed apart in the source
HEK293 [8] = experiment: cells; assay type: functional, cell-based; details: Homo sapiens; remark: listed apart in the source
[9] = THP-1 cell cytotoxicity, dose response, cytotoxicity control for Vif-APOBEC3G degradation inhibitor project, THP-1 cells (AID 1117359); assay type: functional; details: Human immunodeficiency virus 1, THP-1
[10] = biological target: T1, Short transient receptor potential channel 4 (Mus musculus, UniProt Q9QUQ5); experiment: mouse TRPC4 channel activators, dose response, cell-based, HEK293 TRPC4/mu-opioid, Fluo-4 calcium (AID 434937); assay type: functional
T1 sequence (Q9QUQ5 whole entry): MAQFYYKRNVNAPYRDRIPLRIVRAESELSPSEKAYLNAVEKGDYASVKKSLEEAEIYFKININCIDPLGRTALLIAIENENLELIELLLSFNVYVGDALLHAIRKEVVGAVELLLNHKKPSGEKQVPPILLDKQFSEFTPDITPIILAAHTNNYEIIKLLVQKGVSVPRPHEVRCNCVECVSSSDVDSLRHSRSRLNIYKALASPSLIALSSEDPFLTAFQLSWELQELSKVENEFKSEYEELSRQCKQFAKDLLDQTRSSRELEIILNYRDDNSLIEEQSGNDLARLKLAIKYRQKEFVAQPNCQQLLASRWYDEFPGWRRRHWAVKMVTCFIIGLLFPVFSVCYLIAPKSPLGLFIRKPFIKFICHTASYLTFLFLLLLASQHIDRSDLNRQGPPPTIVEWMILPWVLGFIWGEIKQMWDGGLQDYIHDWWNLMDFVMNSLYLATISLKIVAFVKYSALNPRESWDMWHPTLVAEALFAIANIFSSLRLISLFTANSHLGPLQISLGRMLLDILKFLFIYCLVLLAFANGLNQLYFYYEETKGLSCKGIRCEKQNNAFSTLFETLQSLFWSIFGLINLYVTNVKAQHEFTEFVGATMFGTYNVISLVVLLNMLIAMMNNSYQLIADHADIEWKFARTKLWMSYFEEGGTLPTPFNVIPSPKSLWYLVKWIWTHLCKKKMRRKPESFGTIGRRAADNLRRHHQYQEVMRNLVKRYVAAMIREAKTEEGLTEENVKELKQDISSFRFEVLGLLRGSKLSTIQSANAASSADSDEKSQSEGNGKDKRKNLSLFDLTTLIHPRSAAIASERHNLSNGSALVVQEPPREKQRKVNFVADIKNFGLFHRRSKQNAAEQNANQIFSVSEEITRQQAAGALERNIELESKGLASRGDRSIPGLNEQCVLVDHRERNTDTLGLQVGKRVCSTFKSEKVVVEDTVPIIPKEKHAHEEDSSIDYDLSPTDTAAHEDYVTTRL

[11] = biological target: T2, Low molecular weight phosphotyrosine protein phosphatase (Homo sapiens, UniProt P24666); assay type: functional; details: read-out: IC50_Mean;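 also: Dose-response confirmation assay measuring inhibition of LMPTP enzyme activity by fluorescence intensity read-out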
T2 sequence (P24666 whole entry): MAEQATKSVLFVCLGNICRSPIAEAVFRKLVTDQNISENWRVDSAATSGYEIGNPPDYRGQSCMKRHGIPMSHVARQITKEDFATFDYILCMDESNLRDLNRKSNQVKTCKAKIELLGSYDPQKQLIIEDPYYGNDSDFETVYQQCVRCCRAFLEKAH

[12] = HEp-2 cell cytotoxicity, dose response, cytotoxicity control for RSV inhibitor project, HTS (AID 2410); assay type: functional; details: human respiratory syncytial virus
Vero [13] = experiment: cells; assay type: functional, cell-based; details: Chlorocebus sabaeus
[14] = biological target: Ras and Rab interactor 1/Tyrosine-protein kinase ABL1 (Homo sapiens, UniProt P00519+Q13671); assay type: functional;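 also: biochemical TR-FRET dose-response test measuring inhibition of binding between Rin1 and Abl proteins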
[15] = biological target: Glucose-6-phosphate 1-dehydrogenase (Homo sapiens, UniProt P11413); experiment: human G6PD enzyme inhibitors, dose response, selectivity assay for P. falciparum G6PD inhibitor project, biochemical, fluorescence (AID 504792); assay type: functional
[16] = biological target: T3, Heat shock factor protein 1 (Mus musculus, UniProt P38532); experiment: HSF1 potentiators in luciferase reporter cells, confirmation, cell-based, NIH3T3, luminescence, dose retest (AID 435004); assay type: functional;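 also: stress induced by proteasome inhibitor MG132 added 30 min after compound; luciferase reporter driven by HSF1 response element in NIH3T3 cells; actives raise luminescence as potentiators of the MG132 stress response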
T3 sequence (P38532 whole entry): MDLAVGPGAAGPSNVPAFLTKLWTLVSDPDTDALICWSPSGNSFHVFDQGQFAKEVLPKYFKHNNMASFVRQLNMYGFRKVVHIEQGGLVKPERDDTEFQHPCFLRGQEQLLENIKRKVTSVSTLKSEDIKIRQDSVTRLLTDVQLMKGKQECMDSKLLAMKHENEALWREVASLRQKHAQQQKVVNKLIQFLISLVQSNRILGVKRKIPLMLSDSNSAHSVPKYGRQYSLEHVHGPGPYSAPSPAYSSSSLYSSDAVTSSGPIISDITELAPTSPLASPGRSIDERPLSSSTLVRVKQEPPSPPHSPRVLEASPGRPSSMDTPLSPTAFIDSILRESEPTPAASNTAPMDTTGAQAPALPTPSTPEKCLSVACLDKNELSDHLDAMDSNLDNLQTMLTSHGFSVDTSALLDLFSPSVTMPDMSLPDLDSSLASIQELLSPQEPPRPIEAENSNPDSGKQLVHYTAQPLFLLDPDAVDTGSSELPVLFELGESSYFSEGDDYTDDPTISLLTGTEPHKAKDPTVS

[17] = biological target: FAD-linked sulfhydryl oxidase ALR (Homo sapiens, UniProt P55789); experiment: inhibitors of human ALR sulfhydryl oxidase, dose response, biochemical, H2O2 detection, luminescence, cherry-pick (AID 493248)
[18] = NIH-3T3 fibroblast cytotoxicity, dose response, cytotoxicity control, cell-based, fluorescence, Alamar Blue, secondary assay (AID 2327); assay type: functional;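 also: NIH-3T3 mouse fibroblasts cultured with fluconazole at 8 µg/mL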
[19] = Luminescence Cell-Based Dose Retest to Confirm Inhibitors of Cancer Stem Cells. [Related pubchem assays (depositor defined):AID2717, AID2721]; assay type: functional; details: Homo sapiens
[20] = C. albicans growth with fluconazole, confirmation, fluorescence, retest (AID 2467); assay type: functional, cell-based
Vero [21] = experiment: cells; assay type: functional; details: Chlorocebus sabaeus
[22] = HepG2 cell cytotoxicity, dose response, cytotoxicity control, cherry-picked samples (AID 1159577); assay type: functional, cell-based
[23] = P. falciparum Dd2 growth inhibitors, dose response, SYBR Green, cherry-picked samples (AID 1159567); assay type: functional, cell-based

Sequence of Ras and Rab interactor 1/Tyrosine-protein kinase ABL1 (P00519 whole entry): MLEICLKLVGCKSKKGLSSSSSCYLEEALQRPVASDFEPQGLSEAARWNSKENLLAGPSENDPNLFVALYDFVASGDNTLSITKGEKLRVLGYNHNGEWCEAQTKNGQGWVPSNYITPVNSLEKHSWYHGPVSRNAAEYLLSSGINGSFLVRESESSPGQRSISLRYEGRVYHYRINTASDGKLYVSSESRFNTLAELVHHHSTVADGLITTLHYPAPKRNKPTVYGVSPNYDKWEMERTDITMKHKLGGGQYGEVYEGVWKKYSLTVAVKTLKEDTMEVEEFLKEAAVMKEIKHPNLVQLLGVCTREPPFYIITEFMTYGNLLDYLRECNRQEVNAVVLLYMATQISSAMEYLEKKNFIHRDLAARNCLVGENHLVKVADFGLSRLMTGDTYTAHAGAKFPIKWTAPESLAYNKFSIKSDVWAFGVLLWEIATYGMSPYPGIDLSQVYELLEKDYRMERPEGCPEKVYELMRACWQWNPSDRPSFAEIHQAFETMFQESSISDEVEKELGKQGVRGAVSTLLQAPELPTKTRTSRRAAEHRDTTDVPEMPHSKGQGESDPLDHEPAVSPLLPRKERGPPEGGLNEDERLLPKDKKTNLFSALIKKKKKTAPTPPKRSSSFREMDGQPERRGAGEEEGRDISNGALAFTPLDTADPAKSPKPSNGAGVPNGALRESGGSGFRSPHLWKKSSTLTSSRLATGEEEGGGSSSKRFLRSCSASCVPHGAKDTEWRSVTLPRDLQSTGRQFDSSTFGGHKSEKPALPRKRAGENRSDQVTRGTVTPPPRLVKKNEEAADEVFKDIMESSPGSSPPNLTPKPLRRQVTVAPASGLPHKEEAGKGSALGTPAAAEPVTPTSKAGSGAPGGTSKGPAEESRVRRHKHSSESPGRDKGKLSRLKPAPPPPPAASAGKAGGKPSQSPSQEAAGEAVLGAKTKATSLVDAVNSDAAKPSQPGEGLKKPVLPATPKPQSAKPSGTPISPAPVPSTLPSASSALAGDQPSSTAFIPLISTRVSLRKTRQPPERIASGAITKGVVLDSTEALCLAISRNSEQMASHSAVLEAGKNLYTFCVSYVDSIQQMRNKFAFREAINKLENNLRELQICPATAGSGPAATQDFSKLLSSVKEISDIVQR
Sequence of Ras and Rab interactor 1/Tyrosine-protein kinase ABL1 (Q13671 whole entry): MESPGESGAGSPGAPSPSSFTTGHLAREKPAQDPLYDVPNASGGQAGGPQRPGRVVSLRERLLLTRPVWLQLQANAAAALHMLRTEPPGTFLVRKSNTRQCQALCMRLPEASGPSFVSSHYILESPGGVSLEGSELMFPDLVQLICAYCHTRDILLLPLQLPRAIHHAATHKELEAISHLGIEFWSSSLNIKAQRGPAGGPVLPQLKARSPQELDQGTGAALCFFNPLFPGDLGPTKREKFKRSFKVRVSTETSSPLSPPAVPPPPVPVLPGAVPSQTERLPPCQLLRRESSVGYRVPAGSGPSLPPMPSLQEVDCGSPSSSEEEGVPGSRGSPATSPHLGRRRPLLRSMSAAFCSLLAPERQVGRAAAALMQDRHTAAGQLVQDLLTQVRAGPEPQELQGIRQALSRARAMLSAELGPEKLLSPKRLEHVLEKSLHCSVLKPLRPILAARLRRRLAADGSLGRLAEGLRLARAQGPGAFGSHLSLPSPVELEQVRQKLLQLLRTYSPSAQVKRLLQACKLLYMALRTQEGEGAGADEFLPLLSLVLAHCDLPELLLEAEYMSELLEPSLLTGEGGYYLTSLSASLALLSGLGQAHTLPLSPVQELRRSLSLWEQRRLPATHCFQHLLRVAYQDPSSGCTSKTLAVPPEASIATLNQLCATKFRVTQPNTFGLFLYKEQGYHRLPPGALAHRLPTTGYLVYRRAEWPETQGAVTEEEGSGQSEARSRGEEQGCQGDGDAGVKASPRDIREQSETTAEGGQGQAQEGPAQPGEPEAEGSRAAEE
Sequence of Glucose-6-phosphate 1-dehydrogenase (P11413 whole entry): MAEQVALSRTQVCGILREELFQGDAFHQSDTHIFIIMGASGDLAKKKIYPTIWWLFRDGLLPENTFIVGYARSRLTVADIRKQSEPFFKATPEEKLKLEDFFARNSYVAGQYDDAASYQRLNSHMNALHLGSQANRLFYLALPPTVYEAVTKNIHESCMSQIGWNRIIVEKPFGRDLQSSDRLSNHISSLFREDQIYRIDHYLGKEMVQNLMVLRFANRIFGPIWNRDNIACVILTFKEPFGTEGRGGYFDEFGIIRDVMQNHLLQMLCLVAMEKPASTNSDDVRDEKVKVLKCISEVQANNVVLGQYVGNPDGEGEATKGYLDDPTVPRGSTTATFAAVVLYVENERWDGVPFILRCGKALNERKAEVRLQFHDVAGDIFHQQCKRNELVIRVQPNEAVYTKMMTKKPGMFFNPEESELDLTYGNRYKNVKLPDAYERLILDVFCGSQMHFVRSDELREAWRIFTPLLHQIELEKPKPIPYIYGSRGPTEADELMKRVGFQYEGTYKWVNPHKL
Sequence of Nucleotide-binding oligomerization domain-containing protein 2 (Q9HC29 whole entry, the tested form may be a part): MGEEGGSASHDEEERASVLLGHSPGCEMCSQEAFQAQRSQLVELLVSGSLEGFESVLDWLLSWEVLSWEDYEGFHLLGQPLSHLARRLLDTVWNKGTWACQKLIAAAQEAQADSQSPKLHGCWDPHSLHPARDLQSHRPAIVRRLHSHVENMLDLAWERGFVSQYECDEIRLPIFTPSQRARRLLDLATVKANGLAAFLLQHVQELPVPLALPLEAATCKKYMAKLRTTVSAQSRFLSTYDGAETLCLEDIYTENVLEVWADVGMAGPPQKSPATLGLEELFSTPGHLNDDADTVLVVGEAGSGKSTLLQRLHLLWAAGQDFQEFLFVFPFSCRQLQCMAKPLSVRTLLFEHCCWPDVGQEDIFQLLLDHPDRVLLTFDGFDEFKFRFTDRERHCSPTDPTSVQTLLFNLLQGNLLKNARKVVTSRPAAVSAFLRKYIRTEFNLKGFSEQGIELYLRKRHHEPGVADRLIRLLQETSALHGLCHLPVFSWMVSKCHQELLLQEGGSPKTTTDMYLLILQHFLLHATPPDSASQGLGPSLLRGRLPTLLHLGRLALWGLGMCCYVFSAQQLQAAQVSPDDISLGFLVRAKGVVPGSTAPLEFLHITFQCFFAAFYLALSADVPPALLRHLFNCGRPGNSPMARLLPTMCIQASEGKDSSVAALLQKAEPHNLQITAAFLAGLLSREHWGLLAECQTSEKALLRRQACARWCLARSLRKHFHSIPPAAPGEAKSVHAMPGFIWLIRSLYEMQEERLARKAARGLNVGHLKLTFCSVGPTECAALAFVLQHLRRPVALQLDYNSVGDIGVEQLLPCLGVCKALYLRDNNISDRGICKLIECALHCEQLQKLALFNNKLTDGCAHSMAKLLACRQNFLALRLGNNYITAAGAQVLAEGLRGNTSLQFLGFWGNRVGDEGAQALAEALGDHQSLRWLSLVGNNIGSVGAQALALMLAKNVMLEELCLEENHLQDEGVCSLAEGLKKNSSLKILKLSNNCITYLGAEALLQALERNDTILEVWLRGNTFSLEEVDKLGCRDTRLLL
Sequence of FAD-linked sulfhydryl oxidase ALR (P55789 whole entry): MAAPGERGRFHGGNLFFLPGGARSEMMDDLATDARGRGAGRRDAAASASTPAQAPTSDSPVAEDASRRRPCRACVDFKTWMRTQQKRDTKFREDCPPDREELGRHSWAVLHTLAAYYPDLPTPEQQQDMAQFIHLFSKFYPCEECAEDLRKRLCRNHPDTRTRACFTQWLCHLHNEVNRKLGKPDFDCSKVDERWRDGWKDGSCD

With `O=C(Cc1ccc(Br)cc1)Nc1ncc([N+](=O)[O-])s1` the EC50 [1] was > 20 µM (inactive), the EC50 [2] was 0.553 µM (active) and the IC50 (HEK293 [3]) was 7.9 µM (inactive). For the same molecule, the EC50 (HEK293 [4]) was 3.15 µM (active), the EC50 [5] was > 60 µM (not active) and the IC50 (HEK293 [6]) was 6.55 µM (active). The IC50 (HEK293 [7]) was > 20 µM (inactive) and the IC50 (HEK293 [8]) was > 20 µM (inactive).

With `Cc1cc(C(=O)CCl)c(C)n1-c1c(C)n(C)n(-c2ccccc2)c1=O` the CC50 [9] was > 40 µM (active).

With `NC1=NC2(CCN(Cc3ccccc3)CC2)n2c(nc3ccccc32)N1` the EC50 [10] was 0.299 µM (active) and the IC50 [11] was 27.1 µM (inactive).

In the case of `Cc1sc(NC(=S)NC(=O)c2ccc(C(C)(C)C)cc2)c(C#N)c1C`, the CC50 [12] is reported as 46.8 µM (active) and the IC50 (Vero [13]) is reported as 13.9 µM (active).

For `COC(=O)c1ccc(CSc2nnc(CNC(=O)COc3ccc(Cl)cc3)o2)o1`, the IC50 [14] was 21.4 µM (inactive).

With `CC1(OC(=O)C2CCCC2)C(=O)C=C2C=C(c3ccsc3)N(CC3CC3)C=C2C1=O` (configuration not stated) the IC50 [15] was 64.3 µM (inactive).

For `Cc1ccc(C(=O)NC(=C(Cl)Cl)S(=O)(=O)c2ccc(Cl)cc2)cc1`, the EC50 [1] was > 20 µM (inactive), the EC50 [16] was 7.82 µM (active) and the IC50 (HEK293 [3]) was 5.03 µM (inactive). For the same molecule, the EC50 (HEK293 [4]) was 2.2 µM (active), the IC50 (HEK293 [6]) was 3.42 µM (active) and the IC50 (HEK293 [7]) was > 20 µM (inactive). For the same molecule, the IC50 (HEK293 [8]) was > 20 µM (inactive).

For `CC1(C)CN(c2ccccc2)N(C(=O)c2ccc(C#N)cc2)C1=O`, the IC50 [15] was > 80 µM (inactive), the AC50 [17] was 1.72 µM (active) and the EC50 [18] was 4.88 µM (active). For the same molecule, the AC50 [19] was 3.56 µM (active) and the EC50 [20] was > 38 µM (not active).

For `Cc1c(CCO)c(=O)[nH]n1C(=O)c1c(F)cccc1F`, the CC50 (Vero [21]) was > 25 µM (active) and the IC50 (Vero [13]) was 15.4 µM (active).

With `CCOc1ccccc1Nc1nnc(SC(C)C(=O)Nc2nc(-c3ccccc3)cs2)s1` (configuration not stated) the IC50 (Vero [13]) was > 12.5 µM (active).

For `CCOc1ccc(N(CC(=O)N2CCC(Cc3ccccc3)CC2)S(C)(=O)=O)cc1`, the CC50 [9] was > 40 µM (active).

With `COc1ccc(C2c3c(nc[nH]c3=O)Oc3nc[nH]c(=O)c32)cc1` the IC50 [14] was 2.87 µM (active).

With `CN(C(=O)CCN1C(=O)/C(=C/c2ccccc2)SC1=S)C1CCS(=O)(=O)C1` (configuration not stated) the CC50 (Vero [21]) was 21.2 µM (active).

With `CN(C(=O)c1ccc(NC(=O)Cc2cccc(NC(=O)C3CCN(C(=O)c4ccccc4)CC3)c2)cc1)C1CC1` the IC50 [14] was 15.3 µM (inactive).

For `CC(C)NC(=O)N1CCCCN2[C@H](CO)[C@@H](c3ccc(C#C[C@@H](C)O)cc3)[C@@H]2C1`, the AC50 [22] was > 39 µM (inactive) and the AC50 [23] was 27.8 µM (active).

For `Cc1cccc(-c2ccc([C@@H]3[C@@H](CO)N4CCCCN(CCC(F)(F)F)C[C@H]34)cc2)c1`, the AC50 [22] was 8.79 µM (active) and the AC50 [23] was 0.801 µM (active).

In the case of `O=C(C[C@H]1C[C@@H]2c3cc(NC(=O)c4cccnc4)ccc3O[C@@H]2[C@@H](CO)O1)NCc1ccc(Oc2ccccc2)cc1`, the AC50 [22] is reported as > 39 µM (inactive) and the AC50 [23] is reported as 13.7 µM (active).

With `COc1ccc(S(=O)(=O)N2CCC3(CC2)CN(C(=O)CN(C)C)[C@@H](CO)c2c3c3ccc(OC)cc3n2C)cc1` the AC50 [22] was 18.8 µM (active) and the AC50 [23] was 2.53 µM (active).
